Experimental data reported in patent US20170320870A1 (Medical Research Council Technology, priority 2009, published 2017).

Experiments:
Format in all cases: biochemical
[1] = target: each specific kinase (kinase selectivity panel, Table 2) (Homo sapiens, UniProt O60674); assay: Kinase selectivity: percentage inhibition of each specific kinase at 1 μM inhibitor concentration; conditions: JAK2
Method: (§1) Values are expressed as percentage inhibition of the each specific kinase at 1 μM inhibitor concentration.

[2] = target: each specific kinase (kinase selectivity panel, Table 2) (Homo sapiens, UniProt P27361); assay: as above; conditions: ERK1
Chain of each specific kinase (kinase selectivity panel, Table 2) (Homo sapiens, UniProt P27361) (P27361 whole entry): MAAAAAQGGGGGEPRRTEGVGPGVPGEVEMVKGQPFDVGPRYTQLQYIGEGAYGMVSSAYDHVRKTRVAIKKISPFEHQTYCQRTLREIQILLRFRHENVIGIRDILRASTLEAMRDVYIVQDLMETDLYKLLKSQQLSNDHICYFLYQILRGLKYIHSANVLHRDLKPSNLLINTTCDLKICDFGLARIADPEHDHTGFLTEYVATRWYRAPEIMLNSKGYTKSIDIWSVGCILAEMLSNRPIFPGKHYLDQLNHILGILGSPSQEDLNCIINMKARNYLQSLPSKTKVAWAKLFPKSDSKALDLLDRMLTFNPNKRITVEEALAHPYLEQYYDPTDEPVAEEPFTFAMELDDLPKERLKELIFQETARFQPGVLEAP
Method: as §1

[3] = system: each specific kinase (kinase selectivity panel, Table 2); assay: as above
Method: as §1

[4] = target: each specific kinase (kinase selectivity panel, Table 2) (Homo sapiens, UniProt P51955); assay: as above; conditions: NEK2a
Chain of each specific kinase (kinase selectivity panel, Table 2) (Homo sapiens, UniProt P51955) (P51955 whole entry): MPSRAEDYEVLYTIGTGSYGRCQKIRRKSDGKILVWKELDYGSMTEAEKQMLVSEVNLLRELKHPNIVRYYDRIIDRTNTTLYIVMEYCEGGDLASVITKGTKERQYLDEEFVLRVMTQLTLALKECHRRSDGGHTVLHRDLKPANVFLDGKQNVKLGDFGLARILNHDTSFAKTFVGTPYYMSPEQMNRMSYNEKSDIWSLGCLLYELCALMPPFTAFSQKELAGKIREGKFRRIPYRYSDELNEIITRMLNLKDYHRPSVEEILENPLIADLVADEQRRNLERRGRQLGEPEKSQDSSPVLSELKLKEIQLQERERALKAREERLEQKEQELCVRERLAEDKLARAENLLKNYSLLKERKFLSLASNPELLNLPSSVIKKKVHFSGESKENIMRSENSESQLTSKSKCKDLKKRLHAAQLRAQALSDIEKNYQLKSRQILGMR
Method: as §1

[5] = target: each specific kinase (kinase selectivity panel, Table 2) (Homo sapiens, UniProt Q12851); assay: as above; conditions: GCK
Chain of each specific kinase (kinase selectivity panel, Table 2) (Homo sapiens, UniProt Q12851) (Q12851 whole entry): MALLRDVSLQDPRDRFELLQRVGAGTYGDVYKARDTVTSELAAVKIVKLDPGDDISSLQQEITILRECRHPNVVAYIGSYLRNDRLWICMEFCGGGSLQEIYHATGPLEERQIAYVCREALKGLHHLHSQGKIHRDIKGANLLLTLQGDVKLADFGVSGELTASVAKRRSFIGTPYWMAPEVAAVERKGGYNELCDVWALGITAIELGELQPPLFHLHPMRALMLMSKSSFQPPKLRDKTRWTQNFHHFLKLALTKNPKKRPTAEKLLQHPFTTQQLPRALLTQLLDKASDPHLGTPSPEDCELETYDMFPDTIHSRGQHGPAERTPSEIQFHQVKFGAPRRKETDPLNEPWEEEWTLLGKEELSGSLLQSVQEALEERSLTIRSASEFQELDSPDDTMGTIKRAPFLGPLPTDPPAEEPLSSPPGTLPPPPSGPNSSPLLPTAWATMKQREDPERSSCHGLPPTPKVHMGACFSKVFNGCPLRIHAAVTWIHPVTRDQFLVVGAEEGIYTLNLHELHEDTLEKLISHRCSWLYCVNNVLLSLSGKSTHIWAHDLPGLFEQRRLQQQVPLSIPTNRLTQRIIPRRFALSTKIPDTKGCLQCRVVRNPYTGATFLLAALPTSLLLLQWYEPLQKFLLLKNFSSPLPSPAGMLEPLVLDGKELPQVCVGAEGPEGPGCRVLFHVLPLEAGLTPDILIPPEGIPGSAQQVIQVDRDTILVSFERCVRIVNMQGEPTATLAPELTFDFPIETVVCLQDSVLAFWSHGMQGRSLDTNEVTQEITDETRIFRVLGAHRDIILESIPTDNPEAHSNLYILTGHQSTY
Method: as §1

[6] = target: each specific kinase (kinase selectivity panel, Table 2) (Homo sapiens, UniProt P08069); assay: as above; conditions: IGF-1R
Method: as §1

[7] = target: each specific kinase (kinase selectivity panel, Table 2) (Homo sapiens, UniProt P14616); assay: as above; conditions: IRR
Chain of each specific kinase (kinase selectivity panel, Table 2) (Homo sapiens, UniProt P14616) (P14616 27-1297): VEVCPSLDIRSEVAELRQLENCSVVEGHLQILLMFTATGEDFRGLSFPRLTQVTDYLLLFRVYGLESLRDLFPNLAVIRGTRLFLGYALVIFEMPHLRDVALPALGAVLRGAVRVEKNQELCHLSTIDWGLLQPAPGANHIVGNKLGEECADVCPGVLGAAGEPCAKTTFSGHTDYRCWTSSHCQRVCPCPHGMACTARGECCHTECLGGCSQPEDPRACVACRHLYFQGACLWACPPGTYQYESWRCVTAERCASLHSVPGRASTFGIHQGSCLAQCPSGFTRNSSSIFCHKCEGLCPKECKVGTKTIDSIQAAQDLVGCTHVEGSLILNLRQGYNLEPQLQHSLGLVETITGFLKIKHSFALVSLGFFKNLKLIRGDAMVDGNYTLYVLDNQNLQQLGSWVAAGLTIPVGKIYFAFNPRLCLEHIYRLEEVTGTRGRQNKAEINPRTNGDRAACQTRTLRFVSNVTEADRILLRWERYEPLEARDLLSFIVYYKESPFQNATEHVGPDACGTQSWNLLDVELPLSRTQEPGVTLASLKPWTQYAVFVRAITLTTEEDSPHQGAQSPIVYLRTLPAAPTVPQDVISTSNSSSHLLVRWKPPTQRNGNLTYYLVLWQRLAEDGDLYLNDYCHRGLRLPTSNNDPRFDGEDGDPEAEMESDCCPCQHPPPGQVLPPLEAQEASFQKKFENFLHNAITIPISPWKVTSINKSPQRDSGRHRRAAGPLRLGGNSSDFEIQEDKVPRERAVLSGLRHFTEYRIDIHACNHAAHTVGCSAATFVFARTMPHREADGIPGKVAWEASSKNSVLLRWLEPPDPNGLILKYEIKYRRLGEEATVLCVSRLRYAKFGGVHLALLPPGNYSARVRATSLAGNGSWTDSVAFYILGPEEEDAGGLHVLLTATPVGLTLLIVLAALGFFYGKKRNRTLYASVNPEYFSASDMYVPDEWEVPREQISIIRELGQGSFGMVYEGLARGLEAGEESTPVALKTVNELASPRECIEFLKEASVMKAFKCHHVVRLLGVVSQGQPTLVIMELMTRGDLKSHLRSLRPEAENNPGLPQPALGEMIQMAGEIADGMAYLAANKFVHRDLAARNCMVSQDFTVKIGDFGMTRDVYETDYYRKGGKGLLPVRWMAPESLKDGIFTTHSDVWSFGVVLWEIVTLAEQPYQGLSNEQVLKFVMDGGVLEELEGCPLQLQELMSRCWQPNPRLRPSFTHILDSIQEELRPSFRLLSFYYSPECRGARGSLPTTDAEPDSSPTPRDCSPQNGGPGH
Method: as §1

[8] = target: T1, LRRK2 wild type (recombinant human, catalytic domain amino acids 970-2527, GST-tagged) (Homo sapiens, UniProt Q5S007); assay: LRRK2 wild type protein kinase assay ([γ-33P] ATP, peptide substrate […]), IC50; conditions: LRRK2 (variant not given); read-out: Potency score, LRRK2 IC50
T1 construct: The wild type used was recombinant human, catalytic domain (amino acids 970-2527) GST-tagged, expressed in insect cells; GST; purchased Invitrogen Corporation PV4873; host or cells: insect cells
T1 sequence (Q5S007 970-2527): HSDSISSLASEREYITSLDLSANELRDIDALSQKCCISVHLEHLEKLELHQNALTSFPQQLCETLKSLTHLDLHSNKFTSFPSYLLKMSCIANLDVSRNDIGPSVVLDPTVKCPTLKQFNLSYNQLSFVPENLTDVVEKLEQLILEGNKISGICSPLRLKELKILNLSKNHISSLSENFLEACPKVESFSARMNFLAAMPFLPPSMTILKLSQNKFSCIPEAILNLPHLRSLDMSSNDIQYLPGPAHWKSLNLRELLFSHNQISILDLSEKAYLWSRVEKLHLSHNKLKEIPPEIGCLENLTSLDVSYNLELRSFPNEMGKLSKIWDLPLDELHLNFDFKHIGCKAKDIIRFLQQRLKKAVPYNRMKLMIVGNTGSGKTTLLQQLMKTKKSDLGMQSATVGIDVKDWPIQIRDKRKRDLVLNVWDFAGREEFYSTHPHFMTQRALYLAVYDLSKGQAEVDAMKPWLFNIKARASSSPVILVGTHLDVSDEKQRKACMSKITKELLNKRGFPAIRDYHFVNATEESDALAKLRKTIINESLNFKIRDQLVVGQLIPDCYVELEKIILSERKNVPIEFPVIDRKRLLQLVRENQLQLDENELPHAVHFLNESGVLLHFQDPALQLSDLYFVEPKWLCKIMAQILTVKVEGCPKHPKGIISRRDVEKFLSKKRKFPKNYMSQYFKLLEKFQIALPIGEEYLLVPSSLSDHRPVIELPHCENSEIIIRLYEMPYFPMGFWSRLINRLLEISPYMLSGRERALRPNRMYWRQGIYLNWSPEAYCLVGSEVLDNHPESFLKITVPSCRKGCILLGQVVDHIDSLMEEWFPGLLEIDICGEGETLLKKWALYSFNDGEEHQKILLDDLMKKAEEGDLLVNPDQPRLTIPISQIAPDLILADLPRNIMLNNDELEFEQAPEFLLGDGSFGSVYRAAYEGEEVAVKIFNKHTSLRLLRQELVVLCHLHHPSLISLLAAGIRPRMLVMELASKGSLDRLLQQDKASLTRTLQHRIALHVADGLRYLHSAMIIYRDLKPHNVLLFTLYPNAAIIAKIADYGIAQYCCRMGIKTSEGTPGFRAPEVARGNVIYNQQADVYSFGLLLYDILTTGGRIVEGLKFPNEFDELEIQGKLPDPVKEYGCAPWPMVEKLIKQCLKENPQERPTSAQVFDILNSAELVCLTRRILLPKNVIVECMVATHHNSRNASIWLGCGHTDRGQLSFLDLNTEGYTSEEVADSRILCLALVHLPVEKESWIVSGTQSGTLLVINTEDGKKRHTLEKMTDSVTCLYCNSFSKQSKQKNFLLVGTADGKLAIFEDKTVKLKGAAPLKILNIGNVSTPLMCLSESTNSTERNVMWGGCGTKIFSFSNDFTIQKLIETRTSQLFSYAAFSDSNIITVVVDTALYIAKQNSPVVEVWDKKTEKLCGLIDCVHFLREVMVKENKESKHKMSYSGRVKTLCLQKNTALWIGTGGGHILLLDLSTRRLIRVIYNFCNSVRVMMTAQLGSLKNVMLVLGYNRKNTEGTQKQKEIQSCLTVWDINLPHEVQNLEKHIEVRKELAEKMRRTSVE
In short: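 Insect-cell-expressed enzyme (~5 nM), no activation, incubated 180 min at ~21 °C in 50 mM Tris-HCl pH 7.5, 0.1 mM EGTA, 1 mM DTT, 10 mM MgCl2 with 100 μM peptide substrate and [γ-33P]ATP. Reaction stopped with orthophosphoric acid, captured on P81 filters and counted; IC50 from 10 concentrations in duplicate.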

| SMILES | percentage inhibition of JAK2 [1] | percentage inhibition of ERK1 [2] | percentage inhibition of AMPK [3] | percentage inhibition of PHK [3] | percentage inhibition of NEK2a [4] | percentage inhibition of GCK [5] | percentage inhibition of IGF-1R [6] | percentage inhibition of IRR [7] | IC50 [8] |
| --- | --- | --- | --- | --- | --- | --- | --- | --- | --- |
| O=C(CCc1n[nH]c2ccnc(NC3CCCCC3)c12)N1CCC[C@H](c2ccccc2)C1 [Example 172, 3-(4-Cyclohexylamino-1H-pyrazolo[4,3-c]pyridin-3-yl)-1-((R)-3-phenyl-piperidin-1-yl)-propan-1-one] | 12 percentage | 0 percentage | 0 percentage | 26 percentage | 5 percentage | 19 percentage | 18 percentage | 15 percentage | < 100 nM |
| CC[C@H](C)Oc1nccc2[nH]nc(C)c12 [Example 121, 4-((S)-sec-Butoxy)-3-methyl-1H-pyrazolo[4,3-c]pyridine] | 47 percentage | 1 percentage | 29 percentage | 7 percentage | 0 percentage | 68 percentage | 46 percentage | 22 percentage | < 100 nM |
